In US20110092544A1, “FUNGICIDAL PYRIDINES” (E.I. DU PONT DE nemours and company, priority 2008, published 2011):

Columns and labels:
Type in all cases: in vivo
[1] = tested on: Erysiphe graminis f. sp. tritici; test: Test A: wheat powdery mildew, preventive spray on wheat seedlings, visual disease rating; conditions: for pest or weed control at 200 ppm: Blumeria graminis, 192 h
Summary of the method: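 Acetone/water (50/50) suspension with 250 ppm surfactant sprayed to run-off on wheat seedlings (200 ppm ≈ 500 g/ha); inoculated next day with E. graminis spore dust. Incubated 8 days at 20° C, then visually rated 0–100% disease control versus untreated controls; tests at 200 ppm or 40 ppm.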

[2] = tested on: Puccinia recondite f. sp. tritici; test: Test B: wheat leaf rust, preventive spray on wheat seedlings, visual disease rating; conditions: for pest or weed control at 200 ppm: 192 h
Summary of the method: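 Wheat seedlings were sprayed to run-off with compound suspension, 200 ppm (≈500 g/ha) or 40 ppm where marked, containing surfactant in acetone/water. Inoculation with Puccinia recondita spores followed one day later, then 24 h in saturated humidity at 20° C and 7 days at 20° C. Disease control was rated visually, 0–100% versus controls.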

Septoria tritici = test: Test C: wheat leaf blotch, preventive spray on wheat seedlings, visual disease rating; conditions: 200 ppm, 100 = 100% disease control, 0 = no control
Summary of the method: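 Wheat seedlings sprayed to run-off with compound in acetone/water plus 250 ppm surfactant at 200 ppm (≈500 g/ha), or 40 ppm where marked; inoculated with Septoria tritici next day. Held saturated at 20 °C for 48 h, then 19 days at 20 °C; disease control rated visually 0–100 versus controls.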

Septoria nodorum = test: Test D: wheat glume blotch, preventive spray on wheat seedlings, visual disease rating; conditions: for pest or weed control at 200 ppm: Parastagonospora nodorum, 216 h
Summary of the method: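 Compounds in 3% acetone, then 50/50 acetone–water with 250 ppm Trem 014, sprayed to run-off at 200 ppm (500 g/ha; some at 40 ppm) one day before spore inoculation. Held 48 h saturated at 20 °C, then 7 days at 20 °C; visual rating as % disease control vs untreated (0–100).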

Alternaria solani = test: Test E: tomato early blight, preventive spray on tomato seedlings, visual disease rating; conditions: for pest or weed control at 200 ppm: Alternaria solani, 168 h
Summary of the method: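 Seedlings sprayed to run-off with compound in acetone/water plus 250 ppm Trem 014 (200 ppm ≈ 500 g/ha), inoculated with spores next day. Held 48 h saturated at 27 °C, then 5 days at 20 °C; visual rating 0–100% disease control relative to controls.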

Botrytis cinerea = test: Test F: tomato botrytis, preventive spray on tomato seedlings, visual disease rating; conditions: for pest or weed control at 200 ppm: Botrytis cinerea, 120 h
Summary of the method: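 Tomato seedlings sprayed to run-off with compound suspended in acetone/water (50/50) plus 250 ppm Trem 014, at 200 ppm (≈500 g/ha) or 40 ppm where marked. Inoculated next day with B. cinerea spores, 48 h saturated atmosphere at 20 °C, then 3 days at 24 °C. Visual rating, 0–100% disease control relative to controls.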

Rhizoctonia oryzae = test: Test G: turf brown patch, preventive spray on creeping bent grass seedlings, visual disease rating; conditions: for pest or weed control at 200 ppm: Waitea circinata, in Agrostis stolonifera, 120 h
Source text: (§1) General protocol for preparing test suspensions for Tests A-H: The test compounds were first dissolved in acetone in an amount equal to 3% of the final volume and then suspended at the desired concentration (in ppm) in acetone and purified water (50/50 mix) containing 250 ppm of the surfactant Trem® 014 (polyhydric alcohol esters). The resulting test suspensions were then used in tests A-H. Spraying a 200 ppm test suspension to the point of run-off on the test plants was the equivalent of a rate of 500 g/ha.
The test suspension was sprayed to the point of run-off on creeping bent grass seedlings. The following day the seedlings were inoculated with a spore suspension of Rhizoctonia oryzae (the causal agent of turf brown patch) and incubated in a saturated atmosphere at 27° C. for 48 h, and then moved to a growth chamber at 27° C. for 3 days, after which time disease ratings were visually made.
(§2) Results for Tests A-H are given in Table A. In the table, a rating of 100 indicates 100% disease control and a rating of 0 indicates no disease control (relative to the controls). A dash (-) indicates no test results. All results are for compounds tested at 200 ppm except where the compound number is followed by “*” which indicates the compound was tested at 40 ppm.

Plasmopara viticola = test: Test H: grape downy mildew, spray after inoculation of grape seedlings, visual disease rating; conditions: 200 ppm, 100 = 100% disease control, 0 = no control
Source text: as §1
Grape seedlings were inoculated with a spore suspension of Plasmopara viticola (the causal agent of grape downy mildew) and incubated in a saturated atmosphere at 20° C. for 24 h. After a short drying period, the test suspension was sprayed to the point of run-off on the grape seedlings, and then moved to a growth chamber at 20° C. for 6 days, after which time the test units were placed back into a saturated atmosphere at 20° C. for 24 h. Upon removal, disease ratings were visually made.
as §2

[3] = 200 ppm, 100 = 100% disease control, 0 = no control
[4] = 40 ppm (compound number followed by *)

Compound | Test A rating (% disease control) [1, 3] | Test B rating (% disease control) [2, 3] | Test C rating (% disease control) (Septoria tritici) | Test D rating (% disease control) (Septoria nodorum; [3]) | Test E rating (% disease control) (Alternaria solani; [3]) | Test F rating (% disease control) (Botrytis cinerea; [3]) | Test G rating (% disease control) (Rhizoctonia oryzae; [3]) | Test H rating (% disease control) (Plasmopara viticola) | also measured
COc1cc(OC)cc(-c2c(C(C)C)cnc(C)c2-c2ccccc2)c1 [Compound 4] | 99% | 92% | 99% | 0% | 99% | 99% | 0% | 0% | –
COc1cc(OC)cc(-c2c(C(C)C)c[n+]([O-])c(C)c2-c2ccccc2)c1 [Compound 5] | 98% | 92% | 95% | 0% | 90% | 99% | 0% | 0% | –
CCOC(=O)c1cnc(C)c(-c2ccccc2)c1-c1cc(OC)c(OC)c(OC)c1 [Compound 6] | 0% | 0% | 1% | 0% | 0% | 89% | 0% | 0% | –
COc1cc(OC)cc(-c2c(C(C)(C)O)cnc(C)c2-c2ccccc2F)c1 [Compound 18] | 98% | 99% | 100% | 0% | – | 97% | 47% | 0% | –
CCc1ncc(C(C)(C)O)c(-c2cc(OC)cc(OC)c2)c1-c1ccccc1 [Compound 28] | 96% | 28% | 100% | 0% | 93% | 99% | – | 0% | –
CCc1ncc(C(C)C)c(-c2cc(OC)cc(OC)c2)c1-c1ccccc1 [Compound 30] | 98% | 80% | 100% | 0% | 0% | 99% | – | 0% | –
COc1cc(OC)cc(-c2c(C(C)(C)O)cnc(C)c2-c2c(F)cccc2F)c1 [Compound 42] | 100% | 100% | 100% | 98% | – | 97% | 86% | 0% | –
C=C(C)c1cnc(C)c(-c2c(F)cc(F)cc2F)c1-c1cc(OC)cc(OC)c1 [Compound 43] | 100% | 100% | 100% | 78% | 100% | 100% | 100% | – | –
COc1cc(OC)cc(-c2c(C(C)C)cnc(C)c2-c2c(F)cccc2F)c1 [Compound 45] | 99% | 100% | 100% | 0% | 94% | 100% | 99% | – | –
COc1cc(OC)cc(-c2c(C3=CCCCC3)cnc(C)c2-c2ccc(F)cc2)c1 [Compound 46] | 81% | 95% | – | 0% | 31% | 98% | 0% | – | –
COc1cc(OC)cc(-c2c(C3CCCCC3)cnc(C)c2-c2ccc(F)cc2)c1 [Compound 47] | 91% | 97% | – | 0% | 67% | 96% | 99% | – | –
COc1cc(OC)cc(-c2c(C(C)C)cnc(C)c2-c2c(F)cc(F)cc2F)c1 [Compound 48] | – | – | – | – | – | – | – | – | Test A rating (% disease control) [1, 4]: 98%; Test B rating (% disease control) [2, 4]: 100%; Test D rating (% disease control) (Septoria nodorum; [4]): 0%; Test E rating (% disease control) (Alternaria solani; [4]): 99%; Test F rating (% disease control) (Botrytis cinerea; [4]): 98%; Test G rating (% disease control) (Rhizoctonia oryzae; [4]): 100%
COc1cc(OC)cc(-c2c(-c3ccc(F)cc3)c(C)nc(Cl)c2C2CCCC2)c1 [Compound 49, 2-chloro-3-cyclopentyl-4-(3,5-dimethoxyphenyl)-5-(4-fluorophenyl)-6-methylpyridine] | – | – | – | – | – | – | – | – | pest or weed control at 200 ppm [1, 3]: 0%; pest or weed control at 200 ppm [2, 3]: 0%; pest or weed control at 200 ppm (Septoria nodorum; [3]): 0%; pest or weed control at 200 ppm (Alternaria solani; [3]): 16%; pest or weed control at 200 ppm (Botrytis cinerea; [3]): 0%; pest or weed control at 200 ppm (Rhizoctonia oryzae; [3]): 0%
COc1cc(OC)cc(-c2c(C3CCCC3)cnc(C)c2-c2ccc(F)cc2)c1 [Compound 50, 5-cyclopentyl-4-(3,5-dimethoxyphenyl)-3-(4-fluorophenyl)-2-methylpyridine] | – | – | – | – | – | – | – | – | pest or weed control at 200 ppm [1, 3]: 92%; pest or weed control at 200 ppm [2, 3]: 99%; pest or weed control at 200 ppm (Septoria nodorum; [3]): 60%; pest or weed control at 200 ppm (Alternaria solani; [3]): 100%; pest or weed control at 200 ppm (Botrytis cinerea; [3]): 97%; pest or weed control at 200 ppm (Rhizoctonia oryzae; [3]): 98%
COc1cc(OC)cc(-c2c(C(C)(C)O)c[n+]([O-])c(C)c2-c2ccccc2)c1 [Compound 52] | 25% | 0% | – | 0% | 0% | 0% | 0% | 0% | –
